Patent US20260256792A1, “TREATMENT OF CHRONIC SPONTANEOUS URTICARIA BY ADMINISTERING (R)-2-[3-[4-AMINO-3-(2-FLUORO-4-PHENOXY-PHENYL)PYRAZOLO[3,4-D]PYRIMIDIN-1-YL]PIPERIDINE-1-CARBONYL]-4-METHYL-4-[4-(OXETAN-3-YL)PIPERAZIN-1-YL]PENT-2-ENENITRILE” (priority 2023, published 2026)

System: moderate-to-severe chronic spontaneous urticaria (CSU)
Assay: Phase 2 CSU study: itch severity score over 7 days (ISS7)
Type: in vivo, human
Conditions: Omalizumab-Naïve Population
Source text: The study comprises a 12 week, randomized, double-blind, placebo-controlled, multi-center, dose-ranging efficacy and safety phase, followed by a 40 week open label extension (OLE) phase (see FIG. 1). The study consists of three phases and an optional OLE phase. […] Clinically, CSU is characterized by the spontaneous and recurrent appearance of pruritic hives. The proposed primary endpoints were the UAS7 at Week 12 in EU and EU reference countries and the ISS7 in the US. Regardless of where a participant was from, all assessments were the same. The UAS7 score is a composite score containing both the HSS7 and the ISS7. This allowed a global assessment of the two key components of urticaria: hives and itch. […] The UAS is a validated PRO measure. […] The daily UAS scores range from 0 to 6 point/day. […] Patients were to complete the UAS using the e-diary. […] The following secondary endpoints were to be analyzed using the same approach as for the primary endpoint: • Change from baseline in UAS7 at Week 4 • Change from baseline in UAS7 at Week 12 (for US and US reference countries) • Change from baseline in ISS7 at Week 12 (except US and US reference countries) • Change from baseline in HSS7 at Week 12

CC(C)(C=C(C#N)C(=O)N1CCC[C@@H](n2nc(-c3ccc(Oc4ccccc4)cc3F)c3c(N)ncnc32)C1)N1CCN(C2COC2)CC1 [rilzabrutinib, (R)-2-[3-[4-amino-3-(2-fluoro-4-phenoxy-phenyl)pyrazolo[3,4-d]pyrimidin-1-yl]piperidine-1-carbonyl]-4-methyl-4-[4-(oxetan-3-yl)piperazin-1-yl]pent-2-enenitrile]
Imputed non-responder n (%) (ISS7 reduction of 5 points or more) (400 mg BID, Week 3): 0 n (%) | Non-responder n (%) (ISS7 reduction of 5 points or more) (400 mg BID, Week 3): 17 (48.6) n (%) | OR for rilzabrutinib vs. placebo (ISS7 reduction of 5 points or more) (400 mg BID, Week 3): 2.418 | RRD (%) for rilzabrutinib vs. placebo (ISS7 reduction of 5 points or more) (400 mg BID, Week 3): 21.1% | Responder n (%) (ISS7 reduction of 5 points or more) (400 mg BID, Week 3): 18 (51.4) n (%) | Imputed non-responder n (%) (ISS7 reduction of 5 points or more) (400 mg BID, Week 4): 2 (5.7) n (%) | Non-responder n (%) (ISS7 reduction of 5 points or more) (400 mg BID, Week 4): 17 (48.6) n (%) | OR for rilzabrutinib vs. placebo (ISS7 reduction of 5 points or more) (400 mg BID, Week 4): 1.476 | Responder n (%) (ISS7 reduction of 5 points or more) (400 mg BID, Week 4): 18 (51.4) n (%) | Imputed non-responder n (%) (ISS7 reduction of 5 points or more) (400 mg BID, Week 5): 2 (5.7) n (%) | Non-responder n (%) (ISS7 reduction of 5 points or more) (400 mg BID, Week 5): 15 (42.9) n (%) | OR for rilzabrutinib vs. placebo (ISS7 reduction of 5 points or more) (400 mg BID, Week 5): 1.334 | RRD (%) for rilzabrutinib vs. placebo (ISS7 reduction of 5 points or more) (400 mg BID, Week 5): 7.3% | Responder n (%) (ISS7 reduction of 5 points or more) (400 mg BID, Week 5): 20 (57.1) n (%) | Imputed non-responder n (%) (ISS7 reduction of 5 points or more) (400 mg BID, Week 6): 2 (5.7) n (%) | Non-responder n (%) (ISS7 reduction of 5 points or more) (400 mg BID, Week 6): 17 (48.6) n (%) | OR for rilzabrutinib vs. placebo (ISS7 reduction of 5 points or more) (400 mg BID, Week 6): 1.326 | RRD (%) for rilzabrutinib vs. placebo (ISS7 reduction of 5 points or more) (400 mg BID, Week 6): 7.1% | Responder n (%) (ISS7 reduction of 5 points or more) (400 mg BID, Week 6): 18 (51.4) n (%) | Imputed non-responder n (%) (ISS7 reduction of 5 points or more) (400 mg BID, Week 7): 2 (5.7) n (%) | Non-responder n (%) (ISS7 reduction of 5 points or more) (400 mg BID, Week 7): 16 (45.7) n (%) | OR for rilzabrutinib vs. placebo (ISS7 reduction of 5 points or more) (400 mg BID, Week 7): 1.533 | Responder n (%) (ISS7 reduction of 5 points or more) (400 mg BID, Week 7): 19 (54.3) n (%) | Imputed non-responder n (%) (ISS7 reduction of 5 points or more) (400 mg BID, Week 8): 3 (8.6) n (%) | Non-responder n (%) (ISS7 reduction of 5 points or more) (400 mg BID, Week 8): 13 (37.1) n (%) | OR for rilzabrutinib vs. placebo (ISS7 reduction of 5 points or more) (400 mg BID, Week 8): 1.690 | RRD (%) for rilzabrutinib vs. placebo (ISS7 reduction of 5 points or more) (400 mg BID, Week 8): 13.7% | Responder n (%) (ISS7 reduction of 5 points or more) (400 mg BID, Week 8): 22 (62.9) n (%) | Imputed non-responder n (%) (ISS7 reduction of 5 points or more) (400 mg BID, Week 9): 7 (20.0) n (%) | Non-responder n (%) (ISS7 reduction of 5 points or more) (400 mg BID, Week 9): 16 (45.7) n (%) | OR for rilzabrutinib vs. placebo (ISS7 reduction of 5 points or more) (400 mg BID, Week 9): 1.462 | Responder n (%) (ISS7 reduction of 5 points or more) (400 mg BID, Week 9): 19 (54.3) n (%) | Imputed non-responder n (%) (ISS7 reduction of 5 points or more) (400 mg BID, Week 10): 8 (22.9) n (%) | Non-responder n (%) (ISS7 reduction of 5 points or more) (400 mg BID, Week 10): 19 (54.3) n (%) | OR for rilzabrutinib vs. placebo (ISS7 reduction of 5 points or more) (400 mg BID, Week 10): 0.883 | RRD (%) for rilzabrutinib vs. placebo (ISS7 reduction of 5 points or more) (400 mg BID, Week 10): −3.1% | Responder n (%) (ISS7 reduction of 5 points or more) (400 mg BID, Week 10): 16 (45.7) n (%) | Imputed non-responder n (%) (ISS7 reduction of 5 points or more) (400 mg BID, Week 11): 7 (20.0) n (%) | Non-responder n (%) (ISS7 reduction of 5 points or more) (400 mg BID, Week 11): 16 (45.7) n (%) | OR for rilzabrutinib vs. placebo (ISS7 reduction of 5 points or more) (400 mg BID, Week 11): 0.963 | RRD (%) for rilzabrutinib vs. placebo (ISS7 reduction of 5 points or more) (400 mg BID, Week 11): −1.0% | Responder n (%) (ISS7 reduction of 5 points or more) (400 mg BID, Week 11): 19 (54.3) n (%) | Imputed non-responder n (%) (ISS7 reduction of 5 points or more) (400 mg BID, Week 12): 11 (31.4) n (%) | Non-responder n (%) (ISS7 reduction of 5 points or more) (400 mg BID, Week 12): 18 (51.4) n (%) | OR for rilzabrutinib vs. placebo (ISS7 reduction of 5 points or more) (400 mg BID, Week 12): 1.095 | RRD (%) for rilzabrutinib vs. placebo (ISS7 reduction of 5 points or more) (400 mg BID, Week 12): 2.4% | Responder n (%) (ISS7 reduction of 5 points or more) (400 mg BID, Week 12): 17 (48.6) n (%) | Imputed non-responder n (%) (ISS7 reduction of 5 points or more) (400 mg QPM, Week 1): 0 n (%) | Non-responder n (%) (ISS7 reduction of 5 points or more) (400 mg QPM, Week 1): 25 (67.6) n (%) | OR for rilzabrutinib vs. placebo (ISS7 reduction of 5 points or more) (400 mg QPM, Week 1): 1.691 | Responder n (%) (ISS7 reduction of 5 points or more) (400 mg QPM, Week 1): 12 (32.4) n (%) | Imputed non-responder n (%) (ISS7 reduction of 5 points or more) (400 mg QPM, Week 2): 0 n (%) | Non-responder n (%) (ISS7 reduction of 5 points or more) (400 mg QPM, Week 2): 23 (62.2) n (%) | OR for rilzabrutinib vs. placebo (ISS7 reduction of 5 points or more) (400 mg QPM, Week 2): 1.637 | Responder n (%) (ISS7 reduction of 5 points or more) (400 mg QPM, Week 2): 14 (37.8) n (%) | Imputed non-responder n (%) (ISS7 reduction of 5 points or more) (400 mg QPM, Week 3): 0 n (%) | Non-responder n (%) (ISS7 reduction of 5 points or more) (400 mg QPM, Week 3): 20 (54.1) n (%) | OR for rilzabrutinib vs. placebo (ISS7 reduction of 5 points or more) (400 mg QPM, Week 3): 1.910 | RRD (%) for rilzabrutinib vs. placebo (ISS7 reduction of 5 points or more) (400 mg QPM, Week 3): 16.0% | Responder n (%) (ISS7 reduction of 5 points or more) (400 mg QPM, Week 3): 17 (45.9) n (%) | Imputed non-responder n (%) (ISS7 reduction of 5 points or more) (400 mg QPM, Week 4): 1 (2.7) n (%) | Non-responder n (%) (ISS7 reduction of 5 points or more) (400 mg QPM, Week 4): 20 (54.1) n (%) | OR for rilzabrutinib vs. placebo (ISS7 reduction of 5 points or more) (400 mg QPM, Week 4): 1.231 | RRD (%) for rilzabrutinib vs. placebo (ISS7 reduction of 5 points or more) (400 mg QPM, Week 4): 5.0% | Responder n (%) (ISS7 reduction of 5 points or more) (400 mg QPM, Week 4): 17 (45.9) n (%) | Imputed non-responder n (%) (ISS7 reduction of 5 points or more) (400 mg QPM, Week 5): 2 (5.4) n (%) | Non-responder n (%) (ISS7 reduction of 5 points or more) (400 mg QPM, Week 5): 21 (56.8) n (%) | OR for rilzabrutinib vs. placebo (ISS7 reduction of 5 points or more) (400 mg QPM, Week 5): 0.787 | RRD (%) for rilzabrutinib vs. placebo (ISS7 reduction of 5 points or more) (400 mg QPM, Week 5): −6.3% | Responder n (%) (ISS7 reduction of 5 points or more) (400 mg QPM, Week 5): 16 (43.2) n (%) | Imputed non-responder n (%) (ISS7 reduction of 5 points or more) (400 mg QPM, Week 6): 4 (10.8) n (%) | Non-responder n (%) (ISS7 reduction of 5 points or more) (400 mg QPM, Week 6): 20 (54.1) n (%) | OR for rilzabrutinib vs. placebo (ISS7 reduction of 5 points or more) (400 mg QPM, Week 6): 1.088 | RRD (%) for rilzabrutinib vs. placebo (ISS7 reduction of 5 points or more) (400 mg QPM, Week 6): 2.0% | Responder n (%) (ISS7 reduction of 5 points or more) (400 mg QPM, Week 6): 17 (45.9) n (%) | Imputed non-responder n (%) (ISS7 reduction of 5 points or more) (400 mg QPM, Week 7): 6 (16.2) n (%) | Non-responder n (%) (ISS7 reduction of 5 points or more) (400 mg QPM, Week 7): 19 (51.4) n (%) | OR for rilzabrutinib vs. placebo (ISS7 reduction of 5 points or more) (400 mg QPM, Week 7): 1.176 | RRD (%) for rilzabrutinib vs. placebo (ISS7 reduction of 5 points or more) (400 mg QPM, Week 7): 4.0% | Responder n (%) (ISS7 reduction of 5 points or more) (400 mg QPM, Week 7): 18 (48.6) n (%) | Imputed non-responder n (%) (ISS7 reduction of 5 points or more) (400 mg QPM, Week 8): 7 (18.9) n (%) | Non-responder n (%) (ISS7 reduction of 5 points or more) (400 mg QPM, Week 8): 20 (54.1) n (%) | OR for rilzabrutinib vs. placebo (ISS7 reduction of 5 points or more) (400 mg QPM, Week 8): 0.843 | RRD (%) for rilzabrutinib vs. placebo (ISS7 reduction of 5 points or more) (400 mg QPM, Week 8): −4.4% | Responder n (%) (ISS7 reduction of 5 points or more) (400 mg QPM, Week 8): 17 (45.9) n (%) | Imputed non-responder n (%) (ISS7 reduction of 5 points or more) (400 mg QPM, Week 9): 6 (16.2) n (%) | Non-responder n (%) (ISS7 reduction of 5 points or more) (400 mg QPM, Week 9): 18 (48.6) n (%) | OR for rilzabrutinib vs. placebo (ISS7 reduction of 5 points or more) (400 mg QPM, Week 9): 1.328 | RRD (%) for rilzabrutinib vs. placebo (ISS7 reduction of 5 points or more) (400 mg QPM, Week 9): 6.5% | Responder n (%) (ISS7 reduction of 5 points or more) (400 mg QPM, Week 9): 19 (51.4) n (%) | Imputed non-responder n (%) (ISS7 reduction of 5 points or more) (400 mg QPM, Week 10): 6 (16.2) n (%)
